# Reference: US8354388B2, “Inhibitors of MRP4 for the treatment of vascular disorders” (INSERM (Institut National de la Sante et de la Recherche …, priority 2007, dated 2013)
# Entries after “also recorded” stand apart in the source; their conditions may differ. Like-named read-outs stand apart in the source and are kept apart here.
# Legend:
# [1] = system: human coronary artery smooth muscle cells (hCASMC); assay: BrdU incorporation proliferation assay in hCASMC; details: for hCASMC proliferation, relative increase compared to 0.1% S: without inhibitors 240±15.8%; for dose-effect on hCASMC proliferation: increasing doses; for inhibitory effect on hCASMC proliferation under inhibition of PKA by Ad-PKI: infection with Ad-PKI
# Protocol: Cell proliferation was measured 72 hours after plating by BrdU incorporation and expressed as relative increase compared to growth supplement starved (0.1% S) cells. […] (b) Dose-effect of MRP and PDE inhibitors (DIP: Dipyridamole, IBMX, MK571 and NBMPR) on hCASMC proliferation. n=3 experiments in triplicate. * p≦0.05, ** p≦0.01, *** p≦0.001
# Human smooth muscle cells were cultured in 96-wells tissue culture plates for 3 days in Smooth Muscle Cell Basal Medium 2 supplemented with 5% S. Medium containing 0.1% S was used for the growth arrest control. Cells were incubated with pharmacological agents or siRNA for 72 h in medium containing 5% S. BrdU was added for the last 16 hours. The cell culture plates were washed, and a colorimetric BrdU cell proliferation assay was performed according to the manufacturer's instructions (Roche).
# MRP4 = biological target: T1, MRP4 (Homo sapiens, UniProt O15439); details: literature reference 41; cited from earlier work
# T1 sequence (O15439 1-1325): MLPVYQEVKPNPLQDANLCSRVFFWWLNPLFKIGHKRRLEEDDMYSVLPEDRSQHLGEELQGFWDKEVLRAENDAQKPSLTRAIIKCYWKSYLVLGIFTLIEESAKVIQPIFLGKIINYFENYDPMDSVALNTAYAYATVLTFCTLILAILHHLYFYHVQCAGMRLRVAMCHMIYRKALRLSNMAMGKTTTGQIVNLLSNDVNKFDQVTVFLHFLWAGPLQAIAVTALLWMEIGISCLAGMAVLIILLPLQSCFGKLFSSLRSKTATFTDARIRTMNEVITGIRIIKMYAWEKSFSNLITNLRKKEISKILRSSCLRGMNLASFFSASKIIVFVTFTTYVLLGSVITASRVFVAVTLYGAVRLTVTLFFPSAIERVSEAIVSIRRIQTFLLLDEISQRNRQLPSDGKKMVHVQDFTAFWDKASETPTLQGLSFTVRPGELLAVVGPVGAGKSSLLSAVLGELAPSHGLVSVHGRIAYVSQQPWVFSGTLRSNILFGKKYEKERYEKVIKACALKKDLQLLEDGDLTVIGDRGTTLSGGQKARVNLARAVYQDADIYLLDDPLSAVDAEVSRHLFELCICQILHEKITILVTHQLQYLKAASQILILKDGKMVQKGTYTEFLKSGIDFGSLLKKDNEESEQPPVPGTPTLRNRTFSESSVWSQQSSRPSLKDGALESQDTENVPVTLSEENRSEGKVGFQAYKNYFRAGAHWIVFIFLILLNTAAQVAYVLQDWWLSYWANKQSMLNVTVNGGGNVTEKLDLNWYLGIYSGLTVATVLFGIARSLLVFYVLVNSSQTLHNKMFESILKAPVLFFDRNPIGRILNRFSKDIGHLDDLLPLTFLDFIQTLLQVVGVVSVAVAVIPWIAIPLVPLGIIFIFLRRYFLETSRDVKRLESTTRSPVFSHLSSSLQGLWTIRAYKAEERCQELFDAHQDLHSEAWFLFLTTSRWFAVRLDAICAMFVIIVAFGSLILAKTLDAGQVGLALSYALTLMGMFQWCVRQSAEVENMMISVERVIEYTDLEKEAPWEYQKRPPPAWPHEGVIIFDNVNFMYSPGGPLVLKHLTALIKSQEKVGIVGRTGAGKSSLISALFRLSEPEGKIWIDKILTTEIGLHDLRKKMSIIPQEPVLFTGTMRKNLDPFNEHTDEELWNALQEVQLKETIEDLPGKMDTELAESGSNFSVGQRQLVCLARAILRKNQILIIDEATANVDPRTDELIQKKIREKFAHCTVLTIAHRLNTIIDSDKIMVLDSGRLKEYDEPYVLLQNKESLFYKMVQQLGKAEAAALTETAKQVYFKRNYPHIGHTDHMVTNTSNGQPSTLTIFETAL
# [2] = system: intracellular cAMP in hCASMC; assay: FRET imaging of cAMP with Epac2-camps in hCASMC; assay type: cell-based; details: Homo sapiens, read-out: EC50, dose providing 50% of maximal cAMP formation
# Protocol: hCASMCs were transfected with scramble siRNA or the siRNA against MRP4 (each at 50 nM) in supplement-free medium over a period of 6 h, before the medium was replaced with supplement-containing medium. 24 h after the transfection, cells were infected with an adenovirus encoding the FRET-based cAMP sensor Epac2-camps. This FRET-based cAMP sensor contains a single cAMP binding domain of Epac2 fused to YFP and CFP fluorescent proteins. Upon addition of forskolin, increasing intra-cellular cAMP concentrations lead to a reversible conformational change of Epac2-camps which results in a decrease of FRET between CFP and YFP, leading to an increase in the CFP/YFP ratio^13. Imaging experiments were performed at 72 h and at room temperature. Cells were maintained in a K^+-Ringer solution containing (in mmol/L): NaCl 121.6, KCl 5.4, MgCl2 1.8; CaCl2 1.8; NaHCO3 4, NaH2PO4 0.8, D-glucose 5, sodium pyruvate 5, HEPES 10, adjusted to pH 7.4. Images were captured every 5 s using the 40× oil immersion objective of a Nikon TE 300 inverted microscope connected to a software-controlled (Metafluor, Molecular Devices, Sunnyvale, Calif., USA) cooled charge coupled (CCD) camera (Sensicam PE; PCO, Kelheim, Germany). […] Average fluorescence intensity was measured in a region of interest comprising the entire cell. […]
# All quantitative data are presented as means ±SD. […]
# human MRP4 = assay: MRP4 silencing in hCASMC (quantitative real-time PCR, western blot); assay type: cell-based; details: siRNA 50 nM, 72 hours after transfection
# Protocol: Total RNA was prepared using RNeasy Mini Kit […] and 1 μg was reverse-transcribed using a standard protocol. One tenth of the resulting cDNA was amplified by 35 cycles of 30 s at 94° C., 30 s at Tm (60° C. for MRP4, MRP5 and RPL32) and 30 s at 72° C., followed by a final amplification at 72° C. for 10 min using 1 unit of BIOTAQ DNA Polymerase (Bioline) and 200 pmol each of the following primers: […]
# Gene specific primers were used to amplify mRNA by qPCR on a Mx4000 apparatus (Stratagene) using the Qiagen SYBR Green master mix. The specificity of each primer set was monitored by analysis of the dissociation curve. A sample volume of 25 μl was used for each assay, which contained a 1× final concentration of SYBR green PCR master mix, 400 nM gene specific primers, and 5 μl template.
# Total cell lysates were prepared according to standard protocol (Upstate Biotechnology). […] Optical Density was quantified using ImageJ software (National Institutes of Health, Bethesda, Md.). […]
# [3] = system: cyclic nucleotide efflux from hCASMCs; assay: cAMP and cGMP competitive enzyme immunoassay, intra-/extra-cellular ratio in hCASMC; assay type: cell-based, human; details: hCASMC transfected 72 h
# Protocol: Cyclic GMP and AMP were measured in cell culture supernates and in cell lysates in hCASMC transfected for 72 h either with the scramble siRNA or the MRP4 siRNA by specific competitive enzyme immunoassay as described by the manufacturer (R&D systems).
# [4] = system: phosphorylated CREB (pCREB); assay: Phosphorylated CREB western blot in proliferating hCASMC; assay type: cell-based, human; details: p=0.003
# Protocol: Total cell lysates were prepared according to standard protocol (Upstate Biotechnology). Membrane proteins were isolated by scraping the cells in buffer A (5 mmol/L Tris/HCl, 250 mmol/L sucrose, and 0.1 mmol/L ethylenediaminetetraacetic acid supplemented with protease inhibitors cocktail (Sigma). The lysate was centrifuged at 10000 g for 10 min at 4° C. and the supernatant further centrifuged at 100000 g for 1 h at 4° C. The resulting pellet was resuspended in buffer A. Proteins (50 μg) were separated by SDS 12% PAGE, blotted on Hybond-C membrane (Amersham Biosciences) and incubated with various antibodies. The anti-MRP4 antibody was previously described^17. Other antibodies were: anti-MRP5 antibody (1:250; Santa-Cruz Biotechnology), anti-Caveolin1 (1:5000, Abcam), anti-cyclinD1 (1:500, BD Biosciences), anti-PP2B (calcineurin) (1:250; BD Biosciences), anti-CREB (1:1000; Upstate Biotechnology), anti-phosphorylated CREB (1:1000; Upstate Biotechnology). Immunoreactive proteins were visualized using an ECL® (enhanced chemiluminescence) detection system (Amersham Biosciences). Optical Density was quantified using ImageJ software (National Institutes of Health, Bethesda, Md.). […]
# [5] = system: cAMP responsive element CRE; assay: CRE-luciferase reporter gene assay in hCASMC; assay type: cell-based, human; details: 5% S, percent of control
# Protocol: Cells were co-transfected with the siRNA (50 nM) and the CRE-luciferase reporter gene plasmid (Stratagene) by electroporation using amaxa® Nucleofector technology according to manufacturer's instructions. After, a period of 6 h, the medium was replaced with supplement containing medium. Cells were grown in the presence of 5% S for 66 h. The results are means for three independent experiments performed in triplicate. The luciferase activity was measured by using “the luciferase assay kit” (Promega). It was expressed as percent of control in relative luciferase units.
# hCASMC = assay: TUNEL staining for apoptosis in hCASMC; assay type: cell-based, human; details: siRNA transfected 72 h
# Protocol: MRP4 or scramble siRNA were transfected in hCASMC for 72 h and the apoptosis was analyzed by TUNEL staining (ApopTag Red, Serologicals Corp). For the positive control, cells were treated with staurosporin (10 μM) for 1 h.
# [6] = system: human pulmonary artery smooth muscle cells (hPASMC); assay: BrdU incorporation proliferation assay in hPASMC; assay type: cell-based
# Description: FIG. 10. Inhibition of hPASMC (human pulmonary artery smooth musclulare cells) proliferation with MRP4 siRNA.
# [7] = 5% S, 72 h, maximal dose used (MK571 37.5 μM, NBMPR 100 μM)
compound,measurement,setting,value
CC(C)Cn1c(=O)n(C)c(=O)c2[nH]cnc21 [IBMX],"hCASMC proliferation, relative increase compared to 0.1% S","[1]; 5% S, 72 h, IBMX 100 μM",170±12%
same,dose-effect on hCASMC proliferation,"[1]; 5% S, 72 h",dose-dependent inhibition
CN(C)C(=O)CCSC(SCCC(=O)O)c1cccc(/C=C/c2ccc3ccc(Cl)cc3n2)c1 (stereo not drawn) [MK571],dose-effect on hCASMC proliferation,"[1]; 5% S, 72 h",dose-dependent inhibition
same,"hCASMC proliferation, relative increase compared to 0.1% S",[1]; [7],153±11%
same,inhibitory effect on hCASMC proliferation under inhibition of PKA by Ad-PKI,"[1]; MK571 37.5 μM, NMBPR 100 μM",also reversed
O=[N+]([O-])c1ccc(CSc2ncnc3c2ncn3[C@@H]2O[C@H](CO)[C@@H](O)[C@H]2O)cc1 [NBMPR],dose-effect on hCASMC proliferation,"[1]; 5% S, 72 h",dose-dependent inhibition
same,"hCASMC proliferation, relative increase compared to 0.1% S",[1]; [7],140±15%
same,inhibitory effect on hCASMC proliferation under inhibition of PKA by Ad-PKI,"[1]; MK571 37.5 μM, NMBPR 100 μM",also reversed
CCCc1nn(C)c2c(=O)[nH]c(-c3cc(S(=O)(=O)N4CCN(C)CC4)ccc3OCC)nc12 [Sildenafil],reported MRP4 inhibition,MRP4,MRP4 inhibitor
OCCN(CCO)c1nc(N2CCCCC2)c2nc(N(CCO)CCO)nc(N3CCCCC3)c2n1 [dipyridamole],reduction of hCASMC proliferation compared to MK571 or NBMPR,"[1]; 5% S, 72 h",no significant difference
same,dose-effect on hCASMC proliferation,"[1]; 5% S, 72 h",dose-dependent inhibition
C=C[C@@]1(C)CC(=O)[C@]2(O)[C@@]3(C)[C@@H](O)CCC(C)(C)[C@@H]3[C@H](O)[C@H](OC(C)=O)[C@@]2(C)O1 [forskolin],EC50,[2]; MRP4 siRNA transfected hCASMC,3 ± 0.6 µM
same,EC50,[2]; scramble siRNA transfected hCASMC,13.3 ± 2.2 µM
"MRP4 siRNA: siRNA against human MRP4, sense 5′-CAGUGUUCUUACACUUCCUTT-3′ (SEQ ID NO:7), anti-sense 5′-AGGAAGUGUAAGAACACUGTT-3′ (SEQ ID NO:8) (chemistry not given here)",decrease in MRP4 mRNA compared to scramble siRNA,human MRP4,75±1%
same,decrease in MRP4 protein level compared to scramble siRNA,human MRP4; western blot,74±6.8%
same,cAMP intra-cellular/extra-cellular ratio compared to scramble siRNA,[3],289±12.5%
same,cGMP intra-cellular/extra-cellular ratio compared to scramble siRNA,[3],230±5.5%
same,increase in level of pCREB compared to scramble siRNA,[4],329±15%
same,CRE-luciferase activity compared to scramble siRNA,[5],553±25%
same,apoptosis in hCASMC,hCASMC,not associated with apoptosis
same,hPASMC proliferation compared to scrambled siRNA,[6],significant decrease; also recorded: inhibits
same,inhibitory effect on hCASMC proliferation under inhibition of PKG by KT5823,"[1]; KT5823, MK571 37.5 μM, NMBPR 100 μM",not by the inhibition of cGMP-dependent protein kinase G
same,inhibitory effect on hCASMC proliferation under inhibition of PKA by Ad-PKI,"[1]; MK571 37.5 μM, NMBPR 100 μM",completely reversed
same,"supplement mix-induced hCASMC proliferation, relative increase compared to 0.1% S","[1]; siRNA 50 nM, 72 h, 5% S, scramble siRNA 313±35%",183±27%
